From PubChem BioAssay (NCI) come the findings set out here.

Experiment in all cases: growth of human tumour cells (NCI), 48 h
Assay [1] relates to MALME-3M melanoma.
The test system of assay [2] is UACC-257 melanoma.
For assay [3], the system named is OVCAR-4 ovarian.
The subject of assay [4] is M14 melanoma.
The test system of assay [5] is NCI-H23 lung.
The test system of assay [6] is HCC-2998 colon.
For assay [7], the system named is DU-145 prostate.
Assay [8] relates to SNB-75 CNS.
The test system of assay [9] is SF-295 CNS.
Assay [10] relates to KM12 colon.

Molecules are shown by their SMILES. Several values for one entry are separate records, joined by “and”; a condition that tells them apart may be missing. Identical values can stand only once.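 Assay format: 96-well plates, 48-hour exposure. At the GI50, growth is halved. TGI is the concentration that stops growth completely.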

As for `CCN(Cc1ccc(F)cc1)c1ccc(CO)c(Cl)c1`, the GI50 in assay [1] was 15 µM; in assay [2] it was 0.0835 µM; in [3], 0.298 µM; in assay [4] it was 12.5 µM; in [5], 5.79 µM; in assay [6], 10.3 µM. For the same compound, the GI50 in assay [7] is 15.2 µM; in assay [8], 4.58 µM; in assay [9], 0.714 µM; in assay [10], 16.3 µM. Besides, the TGI is 35.9 µM in assay [1]; 0.285 µM in assay [2]; 7.48 µM in [3]; > 51.8 µM in [4]; 49.1 µM in [5]; 28.3 µM in assay [6]. The TGI in assay [7] is > 49.2 µM; in assay [8] it was 39.6 µM; in assay [9], 14 µM; in assay [10], 40.3 µM.

Consider `N=c1nc(N)c2cc3c(N)nc(=N)c3cc12`, for which the TGI is 18 µM in assay [1]; 28.1 µM in assay [2]; 51.2 µM in assay [3]; 27.9 µM in assay [4]; > 100 µM in [5]; > 100 µM in assay [6]. The TGI in assay [7] is > 100 µM; in [8] it was 42.6 µM; in assay [9], 51 µM; in [10], > 100 µM.

In the case of `CCCCCCN(CCCCCC)C(=N)c1ccnc2ccccc12`, the GI50 in [1] was 2.25 µM; in assay [2], 2.37 µM; in [3] it was 5.98 µM; in [4] it was 1.89 µM; in [5] it was 6.9 µM; in [6], 1.78 µM. Besides, the GI50 was 13.5 µM in assay [7], 4.68 µM in assay [8], 1.39 µM in [9] and 3.95 µM in assay [10]. Also, the TGI in assay [1] was determined as 5.64 µM; in [2], 5.62 µM; in [3], 19.6 µM; in assay [4] it was 4.56 µM; in assay [5] it was 23.4 µM; in assay [6], 3.54 µM. The TGI in assay [7] was determined as 26.6 µM; in [8], 17.3 µM; in assay [9], 13.4 µM; in assay [10], 15.2 µM.

Take `Cc1cc(N(CCOS(C)(=O)=O)CCOS(C)(=O)=O)ccc1C=Nc1ccc(-c2csc(-c3ccccc3)n2)c(Cl)c1`: the TGI in [1] is 25 µM; in assay [2], 49.3 µM; in assay [3] it was 51.3 µM; in assay [4], 43.1 µM; in [5] it was 29 µM; in assay [6] it was 15.8 µM. In addition, the TGI in assay [7] is 35.6 µM; in assay [8] it was 14.1 µM; in assay [9] it was 29.8 µM; in assay [10] it was 27.2 µM.

Turning to `COc1ccc(OC)c(/C=C/c2nnc(Nc3ccc(Cl)cc3)o2)c1`, the GI50 in assay [1] was 9.87 µM; in assay [2], 21.3 µM; in assay [3], 2.44 µM; in [4], 20.7 µM; in [5], 21.7 µM; in assay [6], > 100 µM. Further, the GI50 in [7] is 11.4 µM; in [8], 2.26 µM; in assay [9] it was 6.15 µM; in assay [10], 17.4 µM. Besides, the TGI in assay [1] is 52.4 µM; in [2], > 100 µM; in assay [3], 6.76 µM; in assay [4], > 100 µM; in [5] it was > 100 µM; in assay [6] it was > 100 µM. The TGI is 36.9 µM in assay [7], 7.94 µM in [8], 64.5 µM in assay [9] and > 100 µM in assay [10].

As to `COc1cc2c(c(OC)c1OC)-c1ccc([O-])c(=O)cc1[C@@H](NC(C)=O)CC2.COc1cc2c(c(OC)c1OC)-c1ccc([O-])c(=O)cc1[C@@H](NC(C)=O)CC2.[Cu+2]`, the GI50 was 15 µM in assay [1]; 12.5 µM in [2]; 4.91 µM in assay [3]; 2.79 µM in assay [4]; 3.73 µM in assay [5]; 2.58 µM in assay [6]. Also, the GI50 in assay [7] is 2.7 µM; in [8] it was 5.39 µM; in assay [9], 3.1 µM; in assay [10], 1.87 µM. In addition, the TGI was > 100 µM in assay [1]; > 100 µM in [2]; > 100 µM in assay [3]; > 100 µM in [4]; > 100 µM in [5]; 7.2 µM in assay [6]. Further, the TGI in assay [7] was 7.21 µM; in [8] it was > 100 µM; in [9], > 100 µM; in [10], 5.52 µM.

Turning to `O=C1C(=O)c2cc([N+](=O)[O-])ccc2-c2ccccc21`, the GI50 was 1.77 µM in [1]; 1.7 µM in [2]; 1.25 µM in assay [3]; 1.97 µM in [4]; 1.65 µM in assay [5]; 1.77 µM in assay [6]. Moreover, the GI50 was 1.74 µM in [7], 1.47 µM in [8], 1.86 µM in assay [9] and 1.79 µM in assay [10]. The TGI turned out to be 3.4 µM in [1]; 3.13 µM in [2]; 2.66 µM in assay [3]; 3.5 µM in [4]; 3.29 µM in assay [5]; 3.18 µM in assay [6]. Also, the TGI in assay [7] came out at 3.16 µM; in assay [8] it was 2.8 µM; in [9], 3.48 µM; in assay [10], 3.23 µM.

As to `C=C(C)C(=O)NC(N)=NC#N`, the GI50 in [1] is 80.8 µM; in assay [2], 69.4 µM; in assay [3], 140 µM; in [4] it was 21 µM; in assay [5], 147 µM; in [7], 145 µM. Further, the GI50 in [8] is 154 µM; in assay [9], 179 µM; in assay [10], 147 µM. For the same compound, the TGI in assay [1] is 63.2 µM and 214 µM; in assay [2], > 66.6 µM and 200 µM; in assay [3], 35.7 µM and 295 µM; in [4] it was 47.8 µM and 131 µM; in [5], 301 µM; in [6], 261 µM. The TGI in assay [7] stood at 291 µM; in assay [8] it was 289 µM; in [9], 330 µM; in assay [10], 286 µM.

For `CC[C@H](C)c1occ2c(O)c(C(=O)O)c(=O)cc-2c1C`, the TGI in assay [1] was 37.7 µM; in [2], > 100 µM; in assay [3], 68.2 µM; in assay [4], > 100 µM; in assay [5], 43.1 µM; in assay [6], 36.8 µM. Moreover, the TGI is > 100 µM in assay [7], > 100 µM in assay [8], 99.3 µM in assay [9] and 35.7 µM in [10].

In the case of `COc1cccc(-c2nn(-c3ccccc3)cc2-c2ccnc(NCCNS(=O)(=O)c3ccc(C(F)(F)F)cc3)c2)c1`, the GI50 in assay [1] was 2.33 µM; in assay [2], 3.14 µM; in assay [3], 2.94 µM; in [4] it was 3.8 µM; in assay [5], 3.23 µM; in assay [6] it was 3.36 µM. For the same compound, the GI50 in assay [7] was 5.09 µM; in assay [8] it was 3.18 µM; in assay [9] it was 2.91 µM; in assay [10] it was 3.02 µM. The TGI in [1] is 6.81 µM; in assay [2], 15 µM; in assay [3], > 100 µM; in [4], > 100 µM; in assay [5], > 100 µM; in assay [6], 24.8 µM. In addition, the TGI is > 100 µM in assay [7], 37.1 µM in [8], 8.67 µM in assay [9] and 16.7 µM in assay [10].

Turning to `Cc1cc(Cl)ccc1Nc1sc(C(=O)c2cc3cc(Cl)ccc3o2)c(N)c1C#N`, the TGI in assay [1] was > 100 µM; in [2], > 100 µM; in [3] it was 25.1 µM; in assay [4] it was > 100 µM; in assay [5], 35.5 µM; in assay [6], 7.24 µM. For the same compound, the TGI was > 100 µM in assay [7], 20.8 µM in assay [8], > 100 µM in assay [9] and > 100 µM in assay [10].

In the case of `O=C(OC(C(=O)O)C(OC(=O)c1ccccc1)C(=O)O)c1ccccc1` (centres undefined) (tested in a mixture with another compound), the TGI in [1] is > 100 µM; in [2] it was > 100 µM; in assay [3], > 100 µM; in assay [4], > 100 µM; in [5], > 100 µM and 84.2 µM; in assay [6], > 100 µM. Moreover, the TGI in assay [7] was > 100 µM; in [8] it was > 100 µM and 56 µM; in assay [9], > 100 µM; in assay [10], > 100 µM.

`COc1ccc(C(=S)c2cc(OC)c(OC)c(OC)c2)cc1OC(=O)CCl`: the GI50 in assay [1] is 0.58 µM; in [2], > 100 µM; in assay [3], 0.073 µM; in assay [4], < 0.0125 µM; in [5], 0.051 µM; in assay [6], 0.0418 µM. Also, the GI50 was 0.0311 µM in assay [7], < 0.0114 µM in assay [8], 0.0356 µM in assay [9] and < 0.01 µM in assay [10]. The TGI in assay [1] was > 76.6 µM; in [2] it was > 100 µM; in [3] it was > 100 µM; in [4], > 49.6 µM; in assay [5], > 100 µM; in assay [6], > 100 µM. Further, the TGI in assay [7], in [8], in assay [9] and in assay [10] was > 100 µM each time.
